Assay: method code SF-CR, from DOI: 10.1021/jo01283a049

logP | Structure (SMILES)
-0.21 | CCCC(N)=O

Assay: not given

Structure (SMILES) | logP
CCCCCF | 2.33
CCCBr | 2.1
CCOC(=O)CC | 1.21

Assay: method code SF-AS, from DOI: 10.1021/jo01283a049

logP | Structure (SMILES)
2.08 | c1ccc2cnccc2c1
1.52 | CC12CCC(C(=O)C1=O)C2(C)C (stereo not given)
1.95 | CCSCC
0.85 | CN(C(N)=S)c1ccccc1

Structure (SMILES) | logP
CNC(=S)Nc1ccccc1 | 0.85
OCc1ccc2c(c1)OCO2 | 1.05
